Where a name gives a salt, the structure may show the parent alone.

In patent publication US5744479A, “Thienopyridine compounds which have useful pharmaceutical activity” (Takeda Chemical Industries, Ltd., priority 1995, dated 1998) one finds IC50 data, which are given here for four compounds.

This test has as its target T1, human GnRH receptor (Homo sapiens, UniProt P30968).
T1 construct: expressed in transfected cells; host or cells: CHO (Chinese Hamster Ovary) cells, membrane fraction
T1 sequence (P30968 1-328): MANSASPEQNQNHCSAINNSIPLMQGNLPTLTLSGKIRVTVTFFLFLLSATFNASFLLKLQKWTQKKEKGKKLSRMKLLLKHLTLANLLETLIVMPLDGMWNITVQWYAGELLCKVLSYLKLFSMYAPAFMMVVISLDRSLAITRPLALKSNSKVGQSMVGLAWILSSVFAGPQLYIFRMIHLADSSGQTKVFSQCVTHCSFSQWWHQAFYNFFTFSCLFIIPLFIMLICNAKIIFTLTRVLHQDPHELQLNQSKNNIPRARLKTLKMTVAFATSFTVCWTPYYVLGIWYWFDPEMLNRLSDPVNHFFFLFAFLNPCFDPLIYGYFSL
In words: Inhibition of ^125 I-leuprorelin binding to membrane fraction of CHO cells expressing human GnRH receptors. Conditions: CHO cell membrane fraction, 25° C., 60 minutes, concentration of PMB=50% by Hill plot, read-out: IC50 value human GnRH receptor (^125 I-leuprorelin binding inhibitory rate).
By IC50 is commonly meant the concentration needed to halve the response being measured. For the compound `CCOC(=O)COc1cn(Cc2c(F)cccc2F)c2sc(-c3ccc(NC(=O)C(C)C)cc3)c(CN(C)Cc3ccccc3)c2c1=O` [Example 12, 4,7-dihydro-2-(4-isobutyrylaminophenyl)-3-(N-benzyl-N-methylaminomethyl)-5-ethoxycarbonylmethoxy-7-(2,6-difluorobenzyl)-4-oxothieno[2,3-b]pyridine], the IC50 was 3 nM. Consider `CC(C)C(=O)Nc1ccc(-c2sc3c(c2CN(C)Cc2ccccc2)c(=O)c(OC(=O)C(C)C)cn3Cc2c(F)cccc2F)cc1` [Example 11, 4,7-dihydro-2-(4-isobutyrylaminophenyl)-3-(N-benzyl-N-methylaminomethyl)-5-isobutyryloxy-7-(2,6-difluorobenzyl)-4-oxothieno[2,3-b]pyridine hydrochloride], for which the IC50 amounted to 2 nM. Then `CC(C)Oc1cn(Cc2c(F)cccc2F)c2sc(-c3ccc(NC(=O)C(C)C)cc3)c(CN(C)Cc3ccccc3)c2c1=O` [Example 8(4), 4,7-dihydro-2-(4-isobutyrylaminophenyl)-3-(N-benzyl-N-methylaminomethyl)-5-isopropoxy-7-(2,6-difluorobenzyl)-4-oxothieno[2,3-b]pyridine], with 1 nM; and `CC(C)C(=O)Nc1ccc(-c2sc3c(c2CN(C)Cc2ccccc2)c(=O)c(OS(=O)(=O)C(C)C)cn3Cc2c(F)cccc2F)cc1` [Example 10, 4,7-dihydro-2-(4-isobutyrylaminophenyl)-3-(N-benzyl-N-methylaminomethyl)-5-isopropylsulfonyloxy-7-(2,6-difluorobenzyl)-4-oxothieno[2,3-b]pyridine hydrochloride], with 0.3 nM.
